One data set relates to PDGFR. The note with it: cited from earlier work.
The subject of another data set is VEGFR-2. Conditions: cited from earlier work.
Data set [1] is described as follows: SU4312 in brain homogenate of rats after i.p. administration (HPLC). Type of data set: in vivo, rat. The note with it: 12 mg/kg i.p. The method, then: To investigate whether SU4312 could reach the brain, an HPLC method was used to detect SU4312 in the brain homogenate and plasma of rats (Scott et al., 2004; Spitsin et al., 2008). Briefly, after drug administration by i.p., the animals were transcardially perfused with PBS/heparin (1000 U/L). Then rats were sacrificed by decapitation and brain tissue was homogenized. SU4312 in the brain homogenate was extracted with 3 ml […]. After evaporating the solvent, the residue was reconstituted in 50 μl methanol. SU4312 in the brain tissue was identified by an Agilent 1200 Series HPLC coupled with UV detector at a wavelength of 254 nm. Prior to the preparation of brain homogenate, transcardial perfusion with PBS/heparin was conducted in order to remove blood from cerebravascular system so as to avoid the interference of the SU4312 that simply retained in the brain vasculature.
Plasma concentration of SU4312 was also assayed by an HPLC method. Briefly, after drug administration by i.p., serial blood samples were collected through right internal jugular vein catheterization at various time points post-dosing. The plasma samples were treated with acetonitrile and methanol followed by centrifugation, and 20 μl supernatants were injected into the liquid chromatographic system. The mobile phase consisted of a mixture of methanol and water (80:20, v/v) at a flow rate of 1 ml/min.

Another data set concerns ERK and Akt pathways. As to the kind of experiment: Western blot of phospho-Akt and phospho-ERK after MPP+. The note with it: data not shown. Type of data set: cell-based. A general note: A western blot detects proteins with antibodies after separation by electrophoresis.
Data set [2] has as its system nNOS knockdown PC12 cells. In words: MPP+ in ShRNA-mediated nNOS knockdown PC12 cells. The data set is classed as cell-based, rat. Conditions: 20 μM SU5416 2 hours, then 1 mM MPP+ 24 hours. The procedure:
The assay was performed according to the specifications of the manufacturer (MTT kit I; Roche Applied Science). […] After the incubation, 100 μl of the solvating solution (0.01 N HCl in 10% SDS solution) was added to each well for 16-20 hours. The absorbance of the samples was measured at a wavelength of 570 nm with 655 nm as a reference wavelength. Unless otherwise indicated, the extent of MTT conversion in cells exposed to MPP^+ is expressed as a percentage of the control. Cytotoxicity was determined by measuring the release of lactate dehydrogenase (LDH). Briefly, cells were precipitated by centrifugation at 500 g for 5 min at room temperature, 50 μl of the supernatants was transferred into new wells, and LDH was determined using the in vitro toxicology assay kit (Roche). The absorbance of the samples was measured at a wavelength of 490 nm with 655 nm as a reference wavelength. ShRNA against rat nNOS was designed according to […] et al, 2009. […] NM_052799), was used to generate shRNA. […] Sense and antisense oligonucleotides were then annealed and cloned into pG418-GFP vector to express shRNA directed against nNOS under the control of the U6 promoter (GenePharma, Shanghai, China). A negative control shRNA (ShNC) with the same nucleotide composition but lacks significant sequence homology to the genome was also used in the experiments. […]

For a further data set, the system named is nNOS protein expression. As to the kind of experiment: Western blot of nNOS protein in CGNs after MPP+. Type of data set: cell-based, rat. Conditions: 20 μM, 35 μM MPP+. The method, then: Briefly, neurons were harvested in a cell lysis buffer. Protein was separated on SDS-polyacrylamide gel and transferred onto polyvinyldifluoride membranes. After membrane blocking, proteins were detected using primary antibodies. After incubation at 4° C. overnight, signals were obtained after binding to chemiluminescent secondary antibodies. Blots were developed using an ECL plus kit (Amersham Bioscience, Aylesbury, UK) and exposed to Kodak autoradiographic films. All data were from three independent experiments and were expressed as the ratio to optical density (OD) values of the corresponding controls for statistical analyses.

The subject of data set [3] is dopaminergic neurons in zebrafish larval. As to the kind of experiment: MPTP zebrafish, TH-positive neuron count in paraffin sections. The data set is classed as in vivo. The procedure:
Healthy zebrafish embryos were picked and dechorionated manually at 1 day post fertilization (dpf) then distributed into a 12-well plate with 20 fish embryos or a 6-well microplate with 30 fish embryos in each well. In pilot experiments, several doses of MPTP were added to embryo medium (final concentration from 50 to 800 μM) and 1 dpf fish embryo were treated for 48 hours, The optimal dose used (200 μM) induced a significant decrease in brain diencephalic dopaminergic neurons without any detectable systematic toxicity (data not shown). Thus subsequent studies were performed with 200 μM MPTP for whole-mount immunostaining and gene expression experiments.
After drug treatment, fixation of zebrafish larval was performed as the procedure in whole-mount immunostaining. The fixed specimens were then mounted on 1% agarose blocks in a common linear plane to ensure that the microtome blade passes through each specimen simultaneously. The specimen-containing agarose was converted into a sectionable paraffin wax block and conducted processes as described by Sabaliauskas et al., 2006. […] The results were analyzed by counting the numbers of TH-positive cells at ×20 magnifications on a stereomicroscope (BX51, Olympus Corp. Japan). TH-positive cells in 3 matched sections of each zebrafish were counted and averaged. […]

For data set [4] the following is noted: phase I, 145 mg/m^2; cited from earlier work.

Consider three molecules from US9486440B2, “Uses of indole-ketones or indolidones as neuro-protective drugs” (UNIVERSITY OF MACAU, priority 2011, dated 2016).

Molecules are shown by their SMILES. Read-outs that look alike come from different tables or passages of the source.

As usually defined, the IC50 is the point on the concentration scale where inhibition reaches its midpoint. Turning to `Clc1ccc(Nc2nnc(Cc3ccncc3)c3ccccc23)cc1` [PTK787/ZK222584], the IC50 in the data set on PDGFR was […]; with VEGFR-2, […]; in the data set with VEGFR-2 (listed as PTK787), […].

For the molecule `CN(C)c1ccc(C=C2C(=O)Nc3ccccc32)cc1` [SU4312, 3-[4-(dimethylamino)benzylidenyl]indolin-2-one], the “detection in the brain, 15 min” value in data set [1] (15 min post-administration) was “could rapidly penetrate into the brain and be detected in the brain 15 min post-administration”. The “detection in the brain, 60 min” value in data set [1] (60 min after administration) is “almost no SU4312 was detected in the brain”.

For `Cc1cc(C)c(/C=C2\C(=O)Nc3ccccc32)[nH]1` [SU5416, (3Z)-3-[(3,5-dimethyl-1H-pyrrol-2-yl)methylidene]-1,3-dihydro-2H-indol-2-one], the “activities of phospho-Akt and phospho-ERK” value in the data set on ERK and Akt pathways is on record as “could neither inhibit the activation of pro-apoptotic ERK pathway, nor reverse the decrease of pro-survival Akt pathway”. The “MPP+-induced cell death in nNOS knockdown PC12 cells (MTT, LDH)” value in data set [2] is on record as “no longer able to inhibit MPP^+-induced cell death”. Further, the “MPP+-increased expression of nNOS protein” value in the data set with nNOS protein expression was “reversed the increased expression of nNOS by MPP^+”. The “MPTP-induced loss of dopaminergic neurons (TH-positive neuron count)” value in data set [3] (200 μM MPTP, 1 μM SU5416, 2 days) is listed as “obviously prevented the loss of dopaminergic neurons”. Further, in data set [3] (without MPTP), the “number of dopaminergic neurons, drug alone” value is reported as “did not notably alter the number of dopaminergic neurons”. For the same molecule, the “tolerability in patients with advanced malignancies” value in data set [4] is given as “well tolerated”.
